Assays:
TBP-2^−/− mice = assay: Glucose or oleic acid supplementation in drinking water while deprived of other food, TBP-2 knockout mice; type: in vivo
Experimental: Blood was collected from the tail veins. Triglyceride concentrations were measured using a Wako Triglyceride Test kit according to the manufacturer's instructions (Wako Pure Chemical Industries, Ltd.). Serum insulin levels were quantified using a Mouse Insulin ELISA kit (Shibayagi Co. Ltd.). The other blood assays were performed by Falco Biosystems Ltd. The liver was removed under anesthesia at appropriate time points, and paraffin sections were prepared. Standard hematoxylin-eosin and Oil Red O staining was performed.
(§1) Glucose and fatty acids are known to be the major energy sources from foods. The anomaly observed in TBP-2^−/− mice strongly indicates the occurrence of nutritional dysmetabolism. To examine this hypothesis, these mice were housed with free access to 20% glucose or 10% oleic acid in drinking water, while deprived of other food.

Wild type mice = assay: Glucose or oleic acid supplementation in drinking water while deprived of other food, wild type mice; type: in vivo, mouse; settings: 20% glucose or 10% oleic acid in drinking water, deprived of other food (data not shown)
Excerpt: as §1

## CCCCCCCC/C=C\CCCCCCCC(=O)O [oleic acid]
TBP-2^−/− mice; 10% oleic acid in drinking water, deprived of other food (FIG. 9A)
  rescue (survival) of TBP-2^−/− mice: not rescued
TBP-2^−/− mice; oleic acid supplementation (data not shown)
  symptoms compared with fasted TBP-2^−/− mice: identical symptoms
Wild type mice
  survival of wild type mice: able to survive
